# Entries after “also recorded” stand apart in the source; their conditions may differ. Ends that are not written are not given here.
# How the values were obtained:
# [1] = tested on: HeLa cells; experiment: Penetration of Lissamine Rhodamine-labeled synthetic peptides into intact cultured cells, fluorescence microscopy; format: cell-based; settings: for cell penetration and nuclear accumulation in intact HeLa cells (FIG. 3) / cell penetration and intracellular localization in intact HeLa cells (FIG. 1): 30 minutes; for cell penetration and nuclear accumulation in intact HeLa cells (FIG. 3): 10 μM Rev at 37° C., 2 μM of RR-S413; for cell penetration and intracellular localization in intact HeLa cells (FIG. 1): 37° C., 5 μM; for co-penetration of free fluorophore LR into intact HeLa cells: mixture of unlabeled S413 and free LR, versus LR alone
# Procedure: HeLa cells (3×10^4 per well) were cultured on eight-well Lab-Teck cover slips (Nunc Inc.) or on 10-mm cover slips to sub confluent density. Following the removal of the culture medium, the cells were washed three times with PBS and then exposed to different concentrations of the Lissamine Rhodamine-labeled peptides at 37° C. or at 4° C. At the end of the incubation period the cells were washed three times in PBS and fixed in 4% (v/v) formaldehyde dissolved in PBS. Fixed cells were examined by fluorescence microscopy (Zeiss Germany, a 40× objective; Apoplan) or by confocal microscopy using an MRC 1024 confocal imaging system (Bio-Rad). The microscope (Axiovert 135M; Zeiss Germany, a 63× objective; Apoplan; NA 1.4) was equipped with an argon ion laser for Rhodamine excitation at 514 nm (emission 580).
# Following fixation, the various samples were examined by fluorescence microscopy.
# Synthetic peptides bearing Tat and Rev ARM sequences were synthesized and fluorescently labeled as described. […]
# [2] = tested on: cultured cells; experiment: Effect of the peptides on cell viability (Trypan Blue); format: cell-based; settings: for toxicity to the cells (cell viability): at concentrations up to about 15 μM; for toxicity to cells, Trypan Blue test: at the concentrations used, 37° C., 30 minutes
# Procedure: Following incubation at 37° C. for 30 minutes 100 ml, Trypan Blue solution was added (0.4% in HBSS buffer; Sigma) and HBSS buffer (5:3) and viable cells counted after 5 minutes of continuous stirring. Cell death was not greater than 20%.
# [3] = tested on: HeLa cells; experiment: Microinjection of the peptides into HeLa cells, nuclear import; format: cell-based; settings: 1 μM, 2 hours after incubation at 37° C.
# Procedure: FIGS. 4a-d: Nuclear import of S413 and RR-S413 in microinjected cells. HeLa cells were microinjected with the fluorescently labeled peptides S413 and RR-S413 (1 μM). The injection mixture also included fluorescently labeled BSA as an injection control (data not shown). Photos were taken 2 hours after incubation at 37° C.
# HeLa cells were microinjected with either S413 or with RR-S413 using the CompInject AIS2 automated microinjection system (Cell Biology Trading, Hamburg, Germany) as described previously [Neumann, M. et al. (2001) J. Cell Sci. 114, 1717-29] using a microinjection method developed by Graessmann et al., as described [Graessmann, M. and Graessmann, A. (1983) Methods Enzymol. 101, 482-492].
# [4] = tested on: permeabilized HeLa cells; experiment: Nuclear uptake in digitonin-permeabilized cells, fluorescence microscopy; format: cell-based; set-up: key to Nuclear Import of PV-S413 / Nuclear uptake: +: Most of the nuclei in the microscopic fields are highly fluorescent; −: No fluorescence in the nuclei; +/−: Most of the nuclei are very weakly fluorescent
# Procedure: FIGS. 2a-d: Nuclear import of PV-S413 in permeabilized HeLa cells: fluorescence microscopy observations. All experimental conditions were as described in Experimental Procedures and in legend to Table 3. Digitonin permeabilized HeLa cells were incubated in the presence of reticulocyte extract at 30° C. for 1 hour with 1 μM of the following:
# HeLa cells were cultivated on 10 mm cover slips to sub confluent density and then permeabilized with digitonin as described previously [Friedler, A. et al. (1998) Biochemistry 37, 5616-5622]. The cells were incubated with the peptides and nuclear import was followed by fluorescence microscopy as described [Friedler, A. et al. (1998) id ibid.].
# Experimental conditions of nuclear import in digitonin-permeabilized cells (complete system) were as described. PV-S413 was used at 1 mM and all incubations were performed at 37° C. in the presence of reticulocyte lysate, unless otherwise indicated. Additions: GTPγS (20 mM) and the following unlabeled peptides SV40 T-Ag NLS, S413 and PV-S413 at a ratio of 1:100 (mol/mol).
# Unlabeled peptides RR-S413, SV40 T-Ag-NLS, Rev and Tat ARM were added at a peptide ratio of 1:100 (mole/mole).
# [5] = tested on: erythrocytes; settings: cited from earlier work
compound,measurement,setting,value
"RQARRNRRRC-NH2 [Rev-ARM, reference compound]",cell penetration and nuclear accumulation in intact HeLa cells (FIG. 3),[1],cell permeable
same,toxicity to the cells (cell viability),[2],not toxic
ALWKTLLKKVLKAPKKKRKV-NH2 [Peptide S413-PV],"toxicity to cells, Trypan Blue test",[2],not toxic
"GRKKRRQRRRPPQC-NH2 [Tat-ARM, reference compound]",toxicity to the cells (cell viability),[2],not toxic
ALWKTLLKKVLKA-NH2 [Peptide S413],localization following microinjection into intact HeLa cells (FIG. 4),[3],retained in the cytoplasm; also recorded: remained in the cytoplasm
same,time of incubation within which penetration into cultured HeLa cells occurs,"[1]; 1 μM of the peptide, either at 37° C. or at 4° C.",≤ 5 min
same,cell penetration and intracellular localization in intact HeLa cells (FIG. 1),[1],accumulated within the cells' cytoplasm and not in the cells' nuclei
same,nuclear localization after long incubation,[1]; 24 hours after incubation at 37° C.,"very little, if any, nuclear localization"
same,penetration into intact cells in ATP depleted cells,[1]; ATP depleted cells,occurred
same,co-penetration of free fluorophore LR into intact HeLa cells,[1],a few intracellular fluorescent dots
same,"toxicity to cells, Trypan Blue test",[2],non-toxic
same,penetration into nuclei of digitonin permeabilized HeLa cells (FIG. 2),"[4]; 1 μM, reticulocyte extract, 30° C., 1 hour",did not penetrate
PKKKRKVALWKTLLKKVLKA-NH2 [PV-S413],intracellular localization in intact HeLa cells at 4° C.,[1]; 4° C.,retained in the cytoplasm
same,cell penetration and intracellular localization in intact HeLa cells (FIG. 1),[1],cell penetration and accumulation within the cells' nuclei
same,"toxicity to cells, Trypan Blue test",[2],not toxic
same,ATP dependence of nuclear import in permeabilized HeLa cells,[4],ATP-dependent
same,nuclear import in permeabilized HeLa cells at 4° C.,[4]; 4° C.,did not occur
same,Nuclear Import of PV-S413,"[4]; (i) Complete System: 1 mM peptide, 37° C., reticulocyte lysate",+
same,Nuclear Import of PV-S413,[4]; (ii) Hexokinase (ATP depleted system),−
same,Nuclear Import of PV-S413,"[4]; (iii) As (i), in the absence of reticulocyte extract",−
same,Nuclear Import of PV-S413,[4]; (iv) As (i) at 4° C.,−
same,Nuclear Import of PV-S413,[4]; (v) As (i) + GTPγS (20 mM),−
same,Nuclear Import of PV-S413,"[4]; (vi) As (i) + unlabeled SV40-NLS, 1:100 (mol/mol)",+/−
same,Nuclear Import of PV-S413,"[4]; (vii) As (i) + unlabeled S413, 1:100 (mol/mol)",+
same,Nuclear Import of PV-S413,"[4]; (viii) As (i) + unlabeled PV-S413, 1:100 (mol/mol)",+/−
same,"effect of GTPγS, WGA and excess of free unlabeled SV40 T-Ag-NLS peptide on nuclear import",[4]; permeabilized HeLa cells,inhibited
"CCN(CC)c1ccc2c(-c3ccc(S(=O)(=O)O)cc3S(=O)(=O)[O-])c3ccc(=[N+](CC)CC)cc-3oc2c1 [L-Rhodamine, Lissamine Rhodamine, reference compound]",co-penetration of free fluorophore LR into intact HeLa cells,[1],did not occur
VKRKKKPALWKTLLKKVLKA-NH2 [rPV-S413],cell penetration and intracellular localization in intact HeLa cells (FIG. 1),[1],"very little, if any, accumulation within the cells' nuclei/nucleoli"
same,nuclei accumulation in permeabilized HeLa cells,[4]; both in the presence and in the absence of the cytosolic extract,either did not accumulate or showed poor nuclei accumulation
"ALWMTLLKKVLKAAAKAALNAVLVGANA-COOH (ALWMTLLKKVLKAAAKAALNAVLVGANA-OH) [Peptide S4, reference compound]",toxicity to erythrocytes,[5],highly toxic
RQARRNRRRALWKTLLKKVLKA-NH2 [RR-S413],localization following microinjection into intact HeLa cells (FIG. 4),[3],accumulated within the intranuclear space; also recorded: accumulated in the nuclei
same,cell penetration and nuclear accumulation in intact HeLa cells (FIG. 3),[1],readily penetrated into intact HeLa cells and accumulated—within a short period of time—within the nuclei of these cells
same,toxicity to the cells (cell viability),[2],not toxic
same,Nuclear uptake,[4]; ATP depleted cells,−
same,Nuclear uptake,[4]; In the absence of cytosolic factors,+
same,Nuclear uptake,[4]; In the presence of cytosolic factors,+/−
same,Nuclear uptake,"[4]; In the presence of unlabeled RR-S413, 1:100 (mole/mole)",+/−
same,Nuclear uptake,"[4]; In the presence of unlabeled Rev-ARM, 1:100 (mole/mole)",−
same,Nuclear uptake,"[4]; In the presence of unlabeled SV40 T-Ag NLS, 1:100 (mole/mole)",+
same,Nuclear uptake,"[4]; In the presence of unlabeled Tat-ARM, 1:100 (mole/mole)",+/−
same,Nuclear uptake,[4]; Incubation in 4° C.,−
same,nuclear import in digitonin permeabilized HeLa cells,[4]; no addition of cytosolic extract required,Nuclear import was also observed

# Reference: patent publication US20040132970A1, “Dermaseptin-derived peptides and their use in delivery systems” (priority 2002, published 2004)
